Test results from ChEMBL document CHEMBL6153091, “Cytotoxic Stilbenoids, Hetero- and Homodimers of Homoisoflavonoids from Prospero autumnale” (J Nat Prod, 2025).
Active and inactive are the calls of the source.

Experiments:
Assay type in all cases: functional, cell-based
LoVo [1] = assay: Induction of apoptosis in human LoVo cells at IC50 concentration incubated for 48 hrs by Annexin V-FITC/PI staining based flow cytometry
PC-3 [2] = assay: Induction of apoptosis in human PC-3 cells at IC50 concentration incubated for 48 hrs by Annexin V-FITC/PI staining based flow cytometry
DU-145 [3] = assay: Induction of apoptosis in human DU-145 cells at IC50 concentration incubated for 48 hrs by Annexin V-FITC/PI staining based flow cytometry
LoVo [4] = assay: Induction of necrosis in human LoVo cells at IC50 concentration incubated for 48 hrs by Annexin V-FITC/PI staining based flow cytometry
PC-3 [5] = assay: Induction of necrosis in human PC-3 cells at IC50 concentration incubated for 48 hrs by Annexin V-FITC/PI staining based flow cytometry
DU-145 [6] = assay: Induction of necrosis in human DU-145 cells at IC50 concentration incubated for 48 hrs by Annexin V-FITC/PI staining based flow cytometry
LoVo [7] = assay: Induction of cell cycle arrest in human LoVo cells assessed as accumulation of cells at S phase incubated for 48 hrs by flow cytometry
PC-3 [8] = assay: Induction of cell cycle arrest in human PC-3 cells assessed as accumulation of cells at S phase incubated for 48 hrs by flow cytometry
DU-145 [9] = assay: Induction of cell cycle arrest in human DU-145 cells assessed as accumulation of cells at S phase incubated for 48 hrs by flow cytometry
DU-145 [10] = assay: Induction of cell cycle arrest in human DU-145 cells assessed as accumulation of cells at G2/M phase incubated for 48 hrs by flow cytometry
MDA-MB-231 [11] = assay: Induction of apoptosis in human MDA-MB-231 cells at IC50 concentration incubated for 48 hrs by Annexin V-FITC/PI staining based flow cytometry
MDA-MB-231 [12] = assay: Induction of necrosis in human MDA-MB-231 cells at IC50 concentration incubated for 48 hrs by Annexin V-FITC/PI staining based flow cytometry
MDA-MB-231 [13] = assay: Induction of cell cycle arrest in human MDA-MB-231 cells assessed as accumulation of cells at S phase incubated for 48 hrs by flow cytometry
LoVo [14] = assay: Induction of cell cycle arrest in human LoVo cells assessed as decrease in accumulation of cells at G2/M phase incubated for 48 hrs by flow cytometry
MDA-MB-231 [15] = assay: Induction of cell cycle arrest in human MDA-MB-231 cells assessed as decrease in accumulation of cells at G2/M phase incubated for 48 hrs by flow cytometry
Hep 3B2 [16] = assay: Induction of early apoptosis in human Hep3B cells at IC50 concentration incubated for 48 hrs by Annexin V-FITC/PI staining based flow cytometry
Hep 3B2 [17] = assay: Induction of necrosis in human Hep3B cells at IC50 concentration incubated for 48 hrs by Annexin V-FITC/PI staining based flow cytometry
Hep 3B2 [18] = assay: Induction of cell cycle arrest in human Hep3B cells assessed as increase in accumulation of cells at G2/M phase incubated for 48 hrs by flow cytometry
Hep 3B2 [19] = assay: Induction of cell cycle arrest in human Hep3B cells assessed as decrease in accumulation of cells at S phase incubated for 48 hrs by flow cytometry
Hep 3B2 [20] = assay: Induction of cell cycle arrest in human Hep3B cells assessed as decrease in accumulation of cells at G0/G1 phase incubated for 48 hrs by flow cytometry
MCF7 [21] = assay: Induction of apoptosis in human MCF7 cells at IC50 concentration incubated for 48 hrs by Annexin V-FITC/PI staining based flow cytometry
HCT-116 [22] = assay: Induction of apoptosis in human HCT-116 cells at IC50 concentration incubated for 48 hrs by Annexin V-FITC/PI staining based flow cytometry
HepG2 [23] = assay: Induction of late apoptosis in human HepG2 cells at IC50 concentration incubated for 48 hrs by Annexin V-FITC/PI staining based flow cytometry
HCT-116 [24] = assay: Induction of necrosis in human HCT-116 cells at IC50 concentration incubated for 48 hrs by Annexin V-FITC/PI staining based flow cytometry
MCF7 [25] = assay: Induction of necrosis in human MCF7 cells at IC50 concentration incubated for 48 hrs by Annexin V-FITC/PI staining based flow cytometry
HepG2 [26] = assay: Induction of necrosis in human HepG2 cells at IC50 concentration incubated for 48 hrs by Annexin V-FITC/PI staining based flow cytometry
HCT-116 [27] = assay: Induction of cell cycle arrest in human HCT-116 cells assessed as accumulation of cells at G0/G1 phase incubated for 48 hrs by flow cytometry
LoVo [28] = assay: Induction of cell cycle arrest in human LoVo cells assessed as accumulation of cells at G0/G1 phase incubated for 48 hrs by flow cytometry
MCF7 [29] = assay: Induction of cell cycle arrest in human MCF7 cells assessed as accumulation of cells at G0/G1 phase incubated for 48 hrs by flow cytometry
MDA-MB-231 [30] = assay: Induction of cell cycle arrest in human MDA-MB-231 cells assessed as accumulation of cells at G0/G1 phase incubated for 48 hrs by flow cytometry
HepG2 [31] = assay: Induction of cell cycle arrest in human HepG2 cells assessed as decrease in accumulation of cells at S phase incubated for 48 hrs by flow cytometry

Measured: Activity

COc1cc(/C=C/c2ccc(O)cc2)cc(O)c1C
active: LoVo [1] | PC-3 [2] | DU-145 [3] | LoVo [4] | PC-3 [5] | DU-145 [6] | LoVo [7] | PC-3 [8] | DU-145 [9] | DU-145 [10]

COc1cc(O)cc(/C=C/c2ccc(O)cc2)c1
active: LoVo [1] | MDA-MB-231 [11] | LoVo [4] | MDA-MB-231 [12] | LoVo [7] | MDA-MB-231 [13] | LoVo [14] | MDA-MB-231 [15]

O=C1/C(=C/c2ccc(O)cc2)COc2cc(O)cc(O)c21
active: Hep 3B2 [16] | Hep 3B2 [17] | Hep 3B2 [18] | Hep 3B2 [19] | Hep 3B2 [20]

COc1ccc([C@H]2c3c(/C=C/c4ccc(O)cc4)cc(OC)c(C)c3O[C@@H]3Oc4cc(O)cc(O)c4C(=O)[C@@H]32)cc1
active: MCF7 [21] | HCT-116 [22] | LoVo [1] | HepG2 [23] | HCT-116 [24] | LoVo [4] | MCF7 [25] | HepG2 [26] | HCT-116 [27] | LoVo [28] | MCF7 [29] | MDA-MB-231 [30] | HepG2 [31]
